Measurements: patent publication US9932303B2, “N-hydroxymethanesulfonamide nitroxyl donors” (Cardioxyl Pharmaceuticals, Inc., priority 2014, dated 2018)

What was measured:
[1] = In vitro stability in rat plasma; type: in vitro ADME; details: pH 7.4, 37° C.; for half-life at 5 μM: male, read-out: T1/2 (minutes) Rat
Procedure: (§1) Certain compounds from Table 1 were tested for their stability in plasma. The assay system comprised (i) PBS, or plasma from rat, dog or human (at least 3 donors, male, pooled) at pH 7.4, and (ii) for tests conducted in plasma, an anticoagulant (sodium heparin or sodium citrate). Each test compound (5 μM) was incubated in PBS or plasma at 37° C. on a THERMOMIXER® with shaking Three samples (n=3) were taken at each of seven sampling time points: 0, 10, 30, 60, 90, 180 and 360 minutes. The samples were immediately combined with 3 volumes (i.e., 3 times the volume of PBS or plasma) of acetonitrile containing 1% formic acid and an internal standard to terminate the reaction. AB SCIEX API 3000 LC-MS/MS analysis of the test compounds was performed without a standard curve. Half-lives (T1/2) of the test compounds were determined from graphs of the percent remaining values using the peak area response ratio.

[2] = In vitro stability in dog plasma; type: in vitro ADME; details: pH 7.4, 37° C.; for half-life at 5 μM: male, read-out: T1/2 (minutes) Dog
Procedure: as §1

[3] = In vitro stability in human plasma; type: in vitro ADME; details: pH 7.4, 37° C.; for half-life at 5 μM: male, read-out: T1/2 (minutes) Human
Procedure: as §1

[4] = system: patients with systolic heart failure; details: cited from earlier work

Compound `Cc1cccc(CS(=O)(=O)NO)c1` [Compound 5, N-Hydroxy-1-(3-methylphenyl)methanesulfonamide] has a half-life at 5 μM [1] of 61 min, a half-life at 5 μM [2] of 55 min and a melting point of 98 °C. For the same compound, the half-life at 5 μM [3] was 81 min.
For `O=S(=O)(Cc1ccc(Br)cc1)NO` [Compound 16, 1-(4-Bromophenyl)-N-hydroxymethanesulfonamide], the half-life at 5 μM [2] was 42 min and the melting point was 160 °C.
Work on `O=S(=O)(Cc1noc2ccccc12)NO` [Compound 22, 1-1,2-Benzoxazol-3-yl-N-hydroxymethanesulfonamide] yielded a half-life at 5 μM [1] of 18 min, a half-life at 5 μM [2] of 21 min and a melting point of 143 °C. The half-life at 5 μM [3] was 25 min.
Compound `O=S(=O)(Cc1cccc(Br)c1)NO` [Compound 15, 1-(3-Bromophenyl)-N-hydroxymethanesulfonamide] has a half-life at 5 μM [2] of 45 min and a melting point of 161 °C.
For `O=S(=O)(Cc1c(F)cccc1Cl)NO` [Compound 19, 1-(2-Chloro-6-fluorophenyl)-N-hydroxymethanesulfonamide], the melting point was 127 °C.
With `O=S(=O)(Cc1ccc(Cl)c(Cl)c1)NO` [Compound 12, 1-(3,4-Dichlorophenyl)-N-hydroxymethanesulfonamide] the half-life at 5 μM [1] was 54 min, the half-life at 5 μM [2] was 60 min and the melting point was 175 °C. For the same compound, the half-life at 5 μM [3] was 34 min.
In the case of `O=S(=O)(Cc1ccccc1F)NO` [Compound 14, 1-(2-Fluorophenyl)-N-hydroxymethanesulfonamide], the half-life at 5 μM [2] is reported as 31 min and the melting point is reported as 118 °C.
`O=S(=O)(Cc1cccc(C(F)(F)F)c1)NO` [Compound 17, N-Hydroxy-1-[3-(trifluoromethyl)phenyl]methanesulfonamide] showed a half-life at 5 μM [2] of 29 min and a melting point of 132 °C.
`O=S(=O)(Cc1c(Cl)cccc1Cl)NO` [Compound 21, 1-(2,6-Dichlorophenyl)-N-hydroxymethanesulfonamide] showed a melting point of 140 °C.
`O=S(=O)(Cc1ccc2oncc2c1)NO` [Compound 26, 1-(Benzo[d]isoxazol-5-yl)-N-hydroxymethanesulfonamide] showed a melting point of 117 °C.
With `O=S(=O)(Cc1ccc(Cl)cc1Cl)NO` [Compound 11, 1-(2,4-Dichlorophenyl)-N-hydroxymethanesulfonamide] the half-life at 5 μM [2] was 45 min and the melting point was 158 °C.
Compound `O=S(=O)(Cc1cccc(Cl)c1)NO` [Compound 3, 1-(3-Chlorophenyl)-N-hydroxymethanesulfonamide] has a half-life at 5 μM [1] of 40 min, a half-life at 5 μM [2] of 70 min and a melting point of 150 °C. It also gave a half-life at 5 μM [3] of 52 min.
In the case of `O=S(=O)(Cc1ccccc1Cl)NO` [Compound 4, 1-(2-Chlorophenyl)-N-hydroxymethanesulfonamide], the half-life at 5 μM [1] is reported as 38 min, the half-life at 5 μM [2] is reported as 36 min and the melting point is reported as 124 °C. For the same compound, the half-life at 5 μM [3] was 28 min.
For `CS(=O)(=O)c1ccccc1S(=O)(=O)NO` [CXL-1020, N-hydroxy-2-methanesulfonylbenzene-1-sulfonamide], the side effects ([4]; at threshold doses needed to produce hemodynamic effects, intravenous) is listed as “unacceptable levels of inflammatory irritation at and distal to the intravenous insertion site” and the hemodynamic effects ([4]; patients with systolic heart failure, intravenously as an aqueous solution at pH=4) is listed as “reduced both left and right heart filling pressures and systemic vascular resistance, while increasing cardiac and stroke volume index”.
Compound `O=S(=O)(NO)C1(c2ccc(Cl)cc2)CC1` [Compound 29, 1-(4-Chlorophenyl)-N-hydroxycyclopropane-1-sulfonamide] has a melting point of 138 °C.
In the case of `O=S(=O)(Cc1cc(F)cc(F)c1)NO` [Compound 20, 1-(3,5-Difluorophenyl)-N-hydroxymethanesulfonamide], the half-life at 5 μM [2] is reported as 33 min and the melting point is reported as 136 °C.
In the case of `O=S(=O)(Cc1ccc(F)cc1F)NO` [Compound 8, 1-(2,4-Difluorophenyl)-N-hydroxymethanesulfonamide], the half-life at 5 μM [1] is reported as 36 min, the half-life at 5 μM [2] is reported as 46 min and the melting point is reported as 166 °C. The half-life at 5 μM [3] was 31 min.
`O=S(=O)(Cc1ccccc1C(F)(F)F)NO` [Compound 7, N-Hydroxy-1-[2-(trifluoromethyl)phenyl]methanesulfonamide] showed a half-life at 5 μM [2] of 25 min and a melting point of 123 °C.
With `O=S(=O)(Cc1cccc(F)c1)NO` [Compound 13, 1-(3-Fluorophenyl)-N-hydroxymethanesulfonamide] the half-life at 5 μM [2] was 42 min and the melting point was 109 °C.
`O=S(=O)(Cc1cc(F)ccc1F)NO` [Compound 9, 1-(2,5-Difluorophenyl)-N-hydroxymethanesulfonamide] showed a half-life at 5 μM [2] of 30 min and a melting point of 125 °C.
With `O=S(=O)(Cc1cc(Cl)ccc1Cl)NO` [Compound 10, 1-(2,5-Dichlorophenyl)-N-hydroxymethanesulfonamide] the half-life at 5 μM [1] was 12 min, the half-life at 5 μM [2] was 27 min and the melting point was 158 °C. For the same compound, the half-life at 5 μM [3] was 12 min.
With `CC(c1ccc(Cl)cc1)S(=O)(=O)NO` (centres unmarked) [Compound 27, 1-(4-Chlorophenyl)-N-hydroxyethanesulfonamide] the melting point was 129 °C.
`O=S(=O)(Cc1ccc(C(F)(F)F)cc1)NO` [Compound 18, N-Hydroxy-1-[4-(trifluoromethyl)phenyl]methanesulfonamide] gave a half-life at 5 μM [1] of 42 min, a half-life at 5 μM [2] of 74 min and a melting point of 156 °C. The half-life at 5 μM [3] was 33 min.
`O=S(=O)(Cc1ccc(F)cc1)NO` [Compound 6, 1-(4-Fluorophenyl)-N-hydroxymethanesulfonamide] gave a half-life at 5 μM [2] of 34 min and a melting point of 158 °C.
With `CC(C)(c1ccc(Cl)cc1)S(=O)(=O)NO` [Compound 28, 2-(4-Chlorophenyl)-N-hydroxypropane-2-sulfonamide] the “T1/2 (minutes) Rat” value ([1]; 5 μM) was 48 min, the “T1/2 (minutes) Dog” value ([2]; 5 μM) was 26 min and the “T1/2 (minutes) Human” value ([3]; 5 μM) was 37 min.
